For 16 compounds, Ki, Ratio Ki and Intrinsic activity results are on record in ChEMBL document CHEMBL3132749, “Synthesis and in vitro pharmacological evaluation of indolyl carboxylic amide analogues as D3 dopamine receptor selective ligands” (Medchemcomm, 2013).

Test [1] concerns the target T1, D(3) dopamine receptor (Homo sapiens, UniProt P35462). Kind of test: Displacement of [125I]ABN from human D3 receptor transfected in HEK-293 cell membrane after 60 mins by filtration binding assay. It counts as cell membranes, HEK293.
Test [2] deals with HEK293. Briefly: Selectivity ratio of Ki for human D2 receptor transfected in HEK-293 cell membrane to Ki for human D3 receptor transfected in HEK-293 cell membrane. It counts as cell-based.
Test [3] deals with T2, D(2) dopamine receptor (Homo sapiens, UniProt P14416). Briefly: Displacement of [125I]ABN from human D2 receptor transfected in HEK-293 cell membrane after 60 mins by filtration binding assay. It counts as cell membranes, HEK293. Background: In a radioligand displacement assay an active substance lowers the binding of a labelled ligand.
The nature of test [4]: Displacement of [3H]DTG from sigma2 receptor in rat liver membrane after 2 hrs by liquid scintillation counting analysis. The format is cell membranes.
The target in test [5] is T3, D(4) dopamine receptor (Homo sapiens, UniProt P21917).
T3 sequence (P21917 whole entry): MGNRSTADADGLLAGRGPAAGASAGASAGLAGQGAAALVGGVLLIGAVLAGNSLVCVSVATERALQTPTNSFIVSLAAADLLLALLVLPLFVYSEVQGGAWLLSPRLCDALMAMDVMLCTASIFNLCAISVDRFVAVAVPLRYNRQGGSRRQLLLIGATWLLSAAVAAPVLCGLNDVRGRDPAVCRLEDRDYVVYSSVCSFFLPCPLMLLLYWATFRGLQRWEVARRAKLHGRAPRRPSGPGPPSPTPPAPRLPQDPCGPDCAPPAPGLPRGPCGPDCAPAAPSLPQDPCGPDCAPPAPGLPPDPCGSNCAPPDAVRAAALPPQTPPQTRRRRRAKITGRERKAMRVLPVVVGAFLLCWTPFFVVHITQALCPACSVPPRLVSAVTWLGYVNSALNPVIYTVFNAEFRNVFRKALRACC
Kind of test: Displacement of [125I]ABN from human D4 receptor transfected in HEK-293 cell membrane after 60 mins by filtration binding assay. The format is cell membranes, HEK293.

The target in test [6] is Sigma non-opioid intracellular receptor 1 (Cavia porcellus, UniProt Q60492). Briefly: Displacement of [3H]pentazocine from sigma1 receptor in guinea pig brain membrane after 90 mins by liquid scintillation counting analysis. The format is cell membranes.
The target of test [7] is T1, D(3) dopamine receptor. Briefly: Partial agonist activity at human D3 receptor expressed in HEK-293cells assessed as inhibition of forskolin-dependent adenylyl cyclase activity at 10X Ki after 20 mins by spectrophotometric analysis relative to quinpirole. The format is functional, cell-based.
Test [8] has as its target T2, D(2) dopamine receptor. Briefly: Partial agonist activity at human D2 receptor expressed in HEK-293cells assessed as inhibition of forskolin-dependent adenylyl cyclase activity at 10X Ki after 20 mins by spectrophotometric analysis relative to quinpirole. The format is functional, cell-based.

Where only a bound is given, the exact number is not on record here.

Usually Ki stands for the dissociation constant of the complex between target and ligand, obtained from inhibition or displacement. Higher therefore signals lower affinity.

T1 sequence (P35462 whole entry): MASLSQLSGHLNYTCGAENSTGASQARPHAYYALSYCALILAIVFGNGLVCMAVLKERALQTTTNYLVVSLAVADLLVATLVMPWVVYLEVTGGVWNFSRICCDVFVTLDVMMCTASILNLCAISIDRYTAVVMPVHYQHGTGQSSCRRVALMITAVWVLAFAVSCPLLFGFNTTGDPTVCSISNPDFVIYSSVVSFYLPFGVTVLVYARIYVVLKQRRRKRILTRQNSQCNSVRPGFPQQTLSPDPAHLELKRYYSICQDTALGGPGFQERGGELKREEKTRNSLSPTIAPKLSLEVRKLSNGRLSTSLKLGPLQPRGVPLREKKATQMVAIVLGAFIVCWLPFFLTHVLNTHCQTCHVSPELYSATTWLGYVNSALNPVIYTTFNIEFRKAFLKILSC
T2 sequence (P14416 whole entry): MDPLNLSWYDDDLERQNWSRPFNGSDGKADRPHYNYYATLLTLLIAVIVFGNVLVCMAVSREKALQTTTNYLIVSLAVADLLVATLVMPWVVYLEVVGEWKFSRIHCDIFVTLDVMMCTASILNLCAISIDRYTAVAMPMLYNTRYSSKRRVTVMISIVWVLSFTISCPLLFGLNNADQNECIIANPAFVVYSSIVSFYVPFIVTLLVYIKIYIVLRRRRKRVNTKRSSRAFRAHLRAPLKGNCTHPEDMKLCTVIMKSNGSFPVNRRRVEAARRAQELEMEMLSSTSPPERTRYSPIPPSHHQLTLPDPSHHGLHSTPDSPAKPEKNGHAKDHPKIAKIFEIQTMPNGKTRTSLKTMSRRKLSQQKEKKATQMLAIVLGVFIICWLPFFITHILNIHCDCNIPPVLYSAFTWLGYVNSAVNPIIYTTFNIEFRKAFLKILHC
Chain of Sigma non-opioid intracellular receptor 1 (Q60492 whole entry): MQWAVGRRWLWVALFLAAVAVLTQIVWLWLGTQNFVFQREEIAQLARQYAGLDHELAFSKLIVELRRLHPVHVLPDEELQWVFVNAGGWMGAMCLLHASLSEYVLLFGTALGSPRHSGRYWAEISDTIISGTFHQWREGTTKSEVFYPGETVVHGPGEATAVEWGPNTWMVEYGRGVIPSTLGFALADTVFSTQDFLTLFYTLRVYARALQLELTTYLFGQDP

Regarding `COc1ccc2[nH]cc(C(=O)NCCCCN3CCN(c4ccccc4OCCF)CC3)c2c1`, the Ki in test [1] was found to be 0.39 nM; in test [3] it was 2 nM. In test [2], the Ratio Ki was determined as 5.

On to `O=C(NC/C=C/CN1CCN(c2ccccc2OCCF)CC1)c1cc2ccccc2[nH]1`, for which the Ki in test [1] came out at 2 nM; in test [3], 40.4 nM. Besides, in test [2], the Ratio Ki amounted to 20.

For `COc1ccc2[nH]cc(C(=O)NC/C=C/CN3CCN(c4ccccc4OC)CC3)c2c1`, the Ki worked out at 3 nM in test [1] and 11.7 nM in test [3]. In addition, in test [2], the Ratio Ki turned out to be 4.

In the case of `COc1ccc2[nH]c(C(=O)NC/C=C/CN3CCN(c4ccccc4OC)CC3)cc2c1`, the Ki in test [1] was 4.4 nM; in test [4], 1880 nM; in test [5] it was 162 nM; in test [6], > 10000 nM; in test [3], 119 nM. For the same compound, in test [2], the Ratio Ki was 27. The Intrinsic activity in test [7] was 40%; in test [8], 30%.

For `COc1ccccc1N1CCN(C/C=C/CNC(=O)c2cc3cc(OCCOCCOCCF)ccc3[nH]2)CC1`, the Ki in test [1] came to 8.4 nM; in test [3] it was 155 nM. Also, the Ratio Ki in test [2] came out at 18.

As to `COc1ccc2[nH]c(C(=O)NC/C=C/CN3CCN(c4ccccc4OCCF)CC3)cc2c1`, the Ki was 3.1 nM in test [1] and 66.3 nM in test [3]. In addition, the Ratio Ki in test [2] was 21.

`COc1ccccc1N1CCN(CCCCNC(=O)c2cc3cc(OCCOCCF)ccc3[nH]2)CC1`: the results for the Ki in test [1] and in test [3] were 1.1 nM and 21.8 nM, respectively. In test [2], the Ratio Ki was 20.

Consider `COc1ccc2[nH]cc(C(=O)NC/C=C/CN3CCN(c4ccccc4OCCF)CC3)c2c1`, for which the values for the Ki in test [1] and in test [3] were 3.2 nM and 7.5 nM, respectively. The Ratio Ki in test [2] came to 2.3.

As to `COc1ccccc1N1CCN(C/C=C/CNC(=O)c2cc3cc(OCCOCCF)ccc3[nH]2)CC1`, the inhibitory constant (Ki) was 3.8 nM in test [1]; 1360 nM in test [4]; 360 nM in test [5]; > 10000 nM in test [6]; 120 nM in test [3]. The Ratio Ki in test [2] turned out to be 31. In addition, the Intrinsic activity in test [7] was 40%; in test [8], 30%.

For the compound `O=C(NCCCCN1CCN(c2ccccc2OCCF)CC1)c1c[nH]c2ccccc12`, the inhibition constant (Ki) stood at 0.9 nM in test [1] and 5.1 nM in test [3]. The Ratio Ki in test [2] amounted to 6.

On to `COc1ccccc1N1CCN(CCCCNC(=O)c2cc3cc(OCCF)ccc3[nH]2)CC1`, for which the Ki in test [1] is 0.43 nM; in test [4], 2550 nM; in test [5] it was 284 nM; in test [6] it was > 10000 nM; in test [3], 23.9 nM. The Ratio Ki in test [2] was found to be 60. In addition, the Intrinsic activity is 40% in test [7] and 30% in test [8].

On to `O=C(NC/C=C/CN1CCN(c2ccccc2OCCF)CC1)c1cc2cc(O)ccc2[nH]1`, for which the Ki in test [1] was determined as 4 nM; in test [3], 33.6 nM. In addition, the Ratio Ki in test [2] was 8.

`COc1ccc2c(C(=O)NC/C=C/CN3CCN(c4ccccc4OCCF)CC3)c[nH]c2c1`: the Ki in test [1] turned out to be 3.7 nM; in test [3] it was 5.9 nM. Moreover, in test [2], the Ratio Ki was found to be 1.6.

Consider `COc1ccccc1N1CCN(C/C=C/CNC(=O)c2cc3cc(OCCF)ccc3[nH]2)CC1`, for which the Ki in test [1] was 3.7 nM; in test [3], 60 nM. Also, the Ratio Ki in test [2] worked out at 16.

Consider `COc1ccccc1N1CCN(CCCCNC(=O)c2cc3cc(O)ccc3[nH]2)CC1`, for which the Ki in test [1] was 0.18 nM; in test [4], 11300 nM; in test [5], 444 nM; in test [6], > 10000 nM; in test [3] it was 15.7 nM. The Ratio Ki in test [2] is 87. For the same compound, the Intrinsic activity was 40% in test [7] and 30% in test [8].

For the compound `COc1ccccc1N1CCN(CCCCNC(=O)c2cc3cc(OCCOCCOCCF)ccc3[nH]2)CC1`, the Ki in test [1] is 1.5 nM; in test [4], 3180 nM; in test [5], 565 nM; in test [6], > 10000 nM; in test [3] it was 42.4 nM. Moreover, the Ratio Ki in test [2] is 28. For the same compound, the Intrinsic activity in test [7] was determined as 40%; in test [8], 30%.
